“Also recorded” adds a separate entry of the source.
Tests used:
[1] = system: panel of 55 breast cancer cell lines; assay: Cell growth inhibition assay (Cell Titer Glo, 72 h, 9 doses; GI50, TGI, LC50); type: cell-based, human; details: value is the negative log10 of mol/L
[2] = system: luminal, basal, claudin-low and ERBB2AMP breast cancer cell lines; assay: Associations of clinically relevant subtypes and response (non-parametric ANOVA or t-test on GI50 ranks); type: cell-based, human; details: for Subtype specificity: Table 6, most sensitive subtype, FDR p<0.20
Excerpt: A central premise of this study is that associations between responses and molecular subtypes observed in preclinical cell line analyses will be recapitulated in the clinic in instances where the predictive molecular features in the cell lines are mirrored in human tumors. We established response-subtype associations by using non-parametric ANOVAs to compare […] values across transcriptional and genomics subtypes.
Differences between GI50s of the groups were compared with a non-parametric ANOVA or t-test, as appropriate, on the ranks. We combined the p-values for the three sets of tests and used false discovery rate (FDR) to correct for multiple testing. For the three-sample test, we performed a post-hoc analysis on the compounds with a significant class effect by comparing each group to all others to determine which group was most sensitive. The p-values for the post-hoc test were FDR-corrected together. In all cases, FDR p<0.20 was deemed significant. […] Analyses were performed in R.

[3] = AU565 cell line, censored GI50 values
[4] = BT20 cell line, censored GI50 values
[5] = BT474 cell line, censored GI50 values
[6] = BT483 cell line, censored GI50 values
[7] = HCC38 cell line, censored GI50 values
[8] = HCC70 cell line, censored GI50 values
[9] = HCC1187 cell line, censored GI50 values
[10] = HCC1419 cell line, censored GI50 values
[11] = HCC1428 cell line, censored GI50 values
[12] = HCC3153 cell line, censored GI50 values
[13] = MDAMB134VI cell line, censored GI50 values
[14] = MDAMB361 cell line, censored GI50 values
[15] = MDAMB436 cell line, censored GI50 values
[16] = MDAMB453 cell line, censored GI50 values
[17] = MDAMB468 cell line, censored GI50 values
[18] = SUM159PT cell line, censored GI50 values
[19] = SUM1315MO2 cell line, censored GI50 values

Cc1cc(Nc2cc(N3CCN(C)CC3)nc(Sc3ccc(NC(=O)C4CC4)cc3)n2)n[nH]1 [VX-680]
GI50 [1, 3]: 5.66
GI50 [1, 4]: 4.72
GI50 [1, 5]: 4.54
GI50 [1, 6]: 5.44
GI50 [1, 7]: 6.94
GI50 [1, 8]: 5.35
GI50 ([1]; HCC1143 cell line, censored GI50 values): 5.98
GI50 [1, 9]: 6.93
GI50 [1, 10]: 4.81
GI50 [1, 11]: 5.10
GI50 ([1]; HCC1500 cell line, censored GI50 values): 4.56
GI50 ([1]; HCC1937 cell line, censored GI50 values): 5.10
GI50 ([1]; HCC2185 cell line, censored GI50 values): 6.46
GI50 [1, 12]: 4.76
GI50 ([1]; MCF7 cell line, censored GI50 values): 5.08
GI50 [1, 13]: 6.11
GI50 ([1]; MDAMB175VII cell line, censored GI50 values): 4.61
GI50 [1, 14]: 5.63
GI50 ([1]; MDAMB415 cell line, censored GI50 values): 4.86
GI50 [1, 15]: 6.19
GI50 [1, 16]: 5.03
GI50 [1, 17]: 6.95
GI50 ([1]; SUM52PE cell line, censored GI50 values): 6.41
GI50 ([1]; SUM149PT cell line, censored GI50 values): 5.07
GI50 [1, 18]: 6.37
GI50 ([1]; SUM185PE cell line, censored GI50 values): 5.62
GI50 [1, 19]: 5.65
GI50 ([1]; T47D cell line, censored GI50 values): 5.03
GI50 ([1]; ZR75B cell line, censored GI50 values): 6.79
GI50 ([1]; ZR751 cell line, censored GI50 values): 5.27
GI50 ([1]; cell line AU565): 5.66
GI50 ([1]; cell line BT20): 4.72
GI50 ([1]; cell line BT474): 4.54
GI50 ([1]; cell line BT483): 5.44
GI50 ([1]; cell line CAMA1): 4.58
GI50 ([1]; cell line HCC38): 6.94
GI50 ([1]; cell line HCC70): 5.35
GI50 ([1]; cell line HCC1143): 5.98
GI50 ([1]; cell line HCC1187): 6.93
GI50 ([1]; cell line HCC1419): 4.81
GI50 ([1]; cell line HCC1428): 5.10
GI50 ([1]; cell line HCC1500): 4.56
GI50 ([1]; cell line HCC1937): 5.10
GI50 ([1]; cell line HCC1954): 4.48
GI50 ([1]; cell line HCC2185): 6.46
GI50 ([1]; cell line HCC3153): 4.76
GI50 ([1]; cell line MCF7): 5.08
GI50 ([1]; cell line MDAMB134V): 6.11
GI50 ([1]; cell line MDAMB175V): 4.61
GI50 ([1]; cell line MDAMB361): 5.63
GI50 ([1]; cell line MDAMB415): 4.86
GI50 ([1]; cell line MDAMB436): 6.19
GI50 ([1]; cell line MDAMB453): 5.03
GI50 ([1]; cell line MDAMB468): 6.95
GI50 ([1]; cell line SKBR3): 4.48
GI50 ([1]; cell line SUM52PE): 6.41
GI50 ([1]; cell line SUM149PT): 5.07
GI50 ([1]; cell line SUM159PT): 6.37
GI50 ([1]; cell line SUM185PE): 5.62
GI50 ([1]; cell line SUM1315MO): 5.65
GI50 ([1]; cell line T47D): 5.03
GI50 ([1]; cell line UACC812): 4.50
GI50 ([1]; cell line ZR75B): 6.79
GI50 ([1]; cell line ZR751): 5.27
association of response with ERBB2 amplification [2]: negatively associated with ERBB2 amplification
subtype-specific response (sensitivity by transcriptional subtype) ([2]; GI50 across subtypes): ERBB2^AMP cell lines were resistant; also recorded: ERBB2AMP cell lines are resistant
Subtype specificity [2]: not ERBB2AMP

Cc1cc(C(C)Nc2ccccc2)c2nc(N3CCOCC3)cc(=O)n2c1 (stereo not drawn) [TGX-221]
GI50 ([1]; 600MPE cell line, censored GI50 values): 5.09
GI50 [1, 3]: 5.18
GI50 [1, 4]: 4.77
GI50 [1, 5]: 5.10
GI50 [1, 6]: 5.37
GI50 ([1]; CAMA1 cell line, censored GI50 values): 5.10
GI50 [1, 7]: 5.11
GI50 [1, 8]: 5.98
GI50 ([1]; HCC202 cell line, censored GI50 values): 5.20
GI50 [1, 9]: 5.48
GI50 ([1]; HCC1395 cell line, censored GI50 values): 5.13
GI50 [1, 10]: 5.16
GI50 [1, 11]: 4.77
GI50 ([1]; HCC1954 cell line, censored GI50 values): 4.79
GI50 [1, 12]: 4.38
GI50 ([1]; LY2 cell line, censored GI50 values): 4.78
GI50 [1, 13]: 4.78
GI50 ([1]; MDAMB231 cell line, censored GI50 values): 4.61
GI50 [1, 14]: 4.75
GI50 [1, 15]: 4.72
GI50 [1, 16]: 4.81
GI50 [1, 17]: 6.27
GI50 ([1]; SKBR3 cell line, censored GI50 values): 5.33
GI50 [1, 18]: 4.49
GI50 [1, 19]: 5.04
GI50 ([1]; cell line 600MPE): 5.09
GI50 ([1]; cell line AU565): 5.18
GI50 ([1]; cell line BT20): 4.77
Subtype specificity [2]: Luminal
